27 compounds from US20120309739A1, “AKT / PKB INHIBITORS” (ALMAC DISCOVERY LIMITED, priority 2009, published 2012) can be followed below.

Counter-ions that a name gives are not always drawn.

Holding throughout (type): biochemical
The target of one test is T1, AKT1 (Homo sapiens, UniProt P31749).
T1 construct: purchased SignalChem
Description: AKT Kinase Assay (IMAP fluorescent polarisation) vs AKT1. Particulars: activated AKT1, FAM Crosstide substrate. The method, boiled down:
(§1)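 IMAP fluorescence-polarisation read-out (485/528 nm) of 5′FAM-Crosstide phosphorylation; IC50 fitted by non-linear regression from % inhibition against vehicle. Fourteen-point half-log compound dilutions sat 45 min at room temperature with activated isoform at linear-range amount. ATP and substrate followed for 1 h, then a 1 h binding-reagent stop.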

For another test, the target named is T2, AKT2 (Homo sapiens, UniProt P31751).
T2 construct: purchased SignalChem
T2 sequence (P31751 whole entry): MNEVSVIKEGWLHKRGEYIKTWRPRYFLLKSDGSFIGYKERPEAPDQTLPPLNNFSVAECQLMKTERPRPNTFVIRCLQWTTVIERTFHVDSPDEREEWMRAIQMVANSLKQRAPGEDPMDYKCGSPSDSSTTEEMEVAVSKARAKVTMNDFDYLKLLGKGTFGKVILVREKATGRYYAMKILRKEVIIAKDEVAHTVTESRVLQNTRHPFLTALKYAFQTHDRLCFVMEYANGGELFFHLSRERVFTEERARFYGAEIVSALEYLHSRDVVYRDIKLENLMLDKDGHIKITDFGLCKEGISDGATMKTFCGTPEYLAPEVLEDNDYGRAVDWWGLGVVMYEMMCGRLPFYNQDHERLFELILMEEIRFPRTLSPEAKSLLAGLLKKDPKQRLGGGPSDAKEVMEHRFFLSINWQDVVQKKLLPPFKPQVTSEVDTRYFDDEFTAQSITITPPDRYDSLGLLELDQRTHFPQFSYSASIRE
Nature of the test: AKT Kinase Assay (IMAP fluorescent polarisation) vs AKT2. Particulars: activated AKT2, FAM Crosstide substrate. The method, boiled down: as §1

A further test addresses T3, AKT3 (Homo sapiens, UniProt Q9Y243).
T3 construct: purchased SignalChem
Nature of the test: AKT Kinase Assay (IMAP fluorescent polarisation) vs AKT3. The settings on record: activated AKT3, FAM Crosstide substrate. The method, boiled down:
as §1

T3 sequence (Q9Y243 whole entry): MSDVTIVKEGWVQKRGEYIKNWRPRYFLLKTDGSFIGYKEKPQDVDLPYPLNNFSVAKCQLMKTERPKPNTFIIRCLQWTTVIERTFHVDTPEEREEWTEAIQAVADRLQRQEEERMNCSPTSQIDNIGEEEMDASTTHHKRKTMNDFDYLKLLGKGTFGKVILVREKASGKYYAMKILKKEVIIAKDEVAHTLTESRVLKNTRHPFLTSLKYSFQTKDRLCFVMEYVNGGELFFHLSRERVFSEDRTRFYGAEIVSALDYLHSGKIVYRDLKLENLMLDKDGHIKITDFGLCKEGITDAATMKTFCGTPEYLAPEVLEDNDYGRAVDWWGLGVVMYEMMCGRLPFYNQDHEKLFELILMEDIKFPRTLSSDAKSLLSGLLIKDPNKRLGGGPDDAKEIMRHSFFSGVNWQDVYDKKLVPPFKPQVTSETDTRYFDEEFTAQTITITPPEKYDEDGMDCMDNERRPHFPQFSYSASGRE
T1 sequence (P31749 whole entry): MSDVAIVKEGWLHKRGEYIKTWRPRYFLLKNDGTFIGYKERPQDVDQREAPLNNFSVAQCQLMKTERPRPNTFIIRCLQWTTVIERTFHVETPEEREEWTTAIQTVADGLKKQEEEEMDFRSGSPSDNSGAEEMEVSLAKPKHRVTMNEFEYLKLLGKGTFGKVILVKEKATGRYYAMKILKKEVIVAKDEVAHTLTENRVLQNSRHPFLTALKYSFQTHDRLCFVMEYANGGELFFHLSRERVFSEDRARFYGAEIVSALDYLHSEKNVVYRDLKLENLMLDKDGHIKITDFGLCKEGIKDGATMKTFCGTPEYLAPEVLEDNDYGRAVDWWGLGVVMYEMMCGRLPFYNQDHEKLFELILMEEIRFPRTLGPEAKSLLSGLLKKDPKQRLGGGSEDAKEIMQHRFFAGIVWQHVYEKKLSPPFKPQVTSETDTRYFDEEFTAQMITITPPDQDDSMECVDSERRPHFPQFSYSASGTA

With `COc1nc(NCCN)nc2oc(-c3ccc(C4(N)CCC4)cc3)c(-c3ccccc3)c12` [Example 43, N^1-(6-(4-(1-Aminocyclobutyl)phenyl)-4-methoxy-5-phenylfuro[2,3-d]pyrimidin-2-yl)ethane-1,2-diamine], the IC50 fell in the range of 100 to 1000 nM at AKT1, 100 to 1000 nM at AKT2 and 1000 to 10000 nM at AKT3.
On to `NC1(c2ccc(-c3oc4cnccc4c3I)cc2)CCC1` [Example 3, 1-(4-(3-Iodofuro[2,3-c]pyridin-2-yl)phenyl)cyclobutanamine], for which the IC50 at AKT1, at AKT2 and on AKT3 was 1000 to 10000 nM each time.
Regarding `NC1(c2ccc(-c3c(-c4ccccc4)oc4cccnc34)cc2)CCC1` [Example 23, 1-(4-(2-Phenylfuro[3,2-b]pyridin-3-yl)phenyl)cyclobutanamine], the IC50 at AKT1, at AKT2 and on AKT3 was over 10000 nM throughout.
As for `Cn1c(=O)c2c(-c3ccccc3)c(-c3ccc(C4(N)CCC4)cc3)oc2n(C)c1=O` [Example 125, 6-(4-(1-Aminocyclobutyl)phenyl)-1,3-dimethyl-5-phenylfuro[2,3-d]pyrimidine-2,4(1H,3H)-dione], the IC50 at AKT1 is 100 to 1000 nM; on AKT2, 1000 to 10000 nM; on AKT3 it was over 10000 nM.
In the same order, the values of `COc1nc(N2CCN(CCN(C)C)CC2)nc2oc(-c3ccc(C4(N)CCC4)cc3)c(-c3ccccc3)c12` [Example 33, 1-(4-(2-(4-(2-(Dimethylamino)ethyl)piperazin-1-yl)-4-methoxy-5-phenylfuro[2,3-d]pyrimidin-6-yl)phenyl)cyclobutanamine] are 100 to 1000 nM, 100 to 1000 nM and 1000 to 10000 nM.
In the same order, the values of `COc1nc(-n2ccnc2)nc2oc(-c3ccc(C4(N)CCC4)cc3)c(-c3ccccc3)c12` [Example 44, 1-(4-(2-(1H-Imidazol-1-yl)-4-methoxy-5-phenylfuro[2,3-d]pyrimidin-6-yl)phenyl)cyclobutanamine] are at most 100 nM, 100 to 1000 nM and over 10000 nM.
In the same order, the values of `NC1(c2ccc(-c3oc4ncc(NCCO)nc4c3-c3ccccc3)cc2)CCC1` [Example 148, 2-(6-(4-(1-Aminocyclobutyl)phenyl)-7-phenylfuro[2,3-b]pyrazin-2-ylamino)ethanol] are 100 to 1000 nM, 1000 to 10000 nM and over 10000 nM.
As to `NC1(c2ccc(-c3oc4c(Br)cn(CCF)c(=O)c4c3-c3ccccc3)cc2)CCC1` [Example 112], the IC50 at AKT1 is 100 to 1000 nM; at AKT2 it was at most 100 nM; at AKT3, over 10000 nM.
In the same order, the values of `CCn1c(NC)nc2oc(-c3ccc(C4(N)CCC4)cc3)c(-c3ccccc3)c2c1=O` [Example 92, 6-(4-(1-Aminocyclobutyl)phenyl)-3-ethyl-2-(methylamino)-5-phenylfuro[2,3-d]pyrimidin-4(3H)-one] are 100 to 1000 nM, at most 100 nM and 1000 to 10000 nM.
Consider `Nc1cnc2oc(-c3ccc(C4(N)CCC4)cc3)c(-c3ccccc3)c2c1` [Example 22, 2-(4-(1-Aminocyclobutyl)phenyl)-3-phenylfuro[2,3-b]pyridin-5-amine], for which the 50% inhibitory concentration (IC50) is 1000 to 10000 nM on AKT1, 1000 to 10000 nM at AKT2 and over 10000 nM at AKT3.
For the compound `CSc1nc(C(F)(F)F)c2c(-c3ccccc3)c(-c3ccc(C4(N)CCC4)cc3)oc2n1` [Example 74, 1-(4-(2-(Methylthio)-5-phenyl-4-(trifluoromethyl)furo[2,3-d]pyrimidin-6-yl)phenyl)cyclobutanamine hydrochloride], the IC50 at AKT1 was 1000 to 10000 nM; on AKT2, 1000 to 10000 nM; on AKT3, over 10000 nM.
For the compound `NC1(c2ccc(-c3oc4nc(NCCO)nc(C(F)(F)F)c4c3-c3ccccc3)cc2)CCC1` [Example 73, 2-((6-(4-(1-Aminocyclobutyl)phenyl)-5-phenyl-4-(trifluoromethyl)furo[2,3-d]pyrimidin-2-yl)amino)ethanol], the IC50 on AKT1 is 100 to 1000 nM; at AKT2, 100 to 1000 nM; on AKT3, over 10000 nM.
Take `Cn1c(C2CC2)nc2oc(-c3ccc(C4(N)CCC4)cc3)c(-c3ccccc3)c2c1=O` [Example 90, 6-(4-(1-Aminocyclobutyl)phenyl)-2-cyclopropyl-3-methyl-5-phenylfuro[2,3-d]pyrimidin-4(3H)-one]: the IC50 at AKT1 was 100 to 1000 nM; on AKT2, 100 to 1000 nM; on AKT3, over 10000 nM.
In the case of `NC1(c2ccc(-c3oc4ncc(-c5cccnc5)nc4c3-c3ccccc3)cc2)CCC1` [Example 150, 1-(4-(7-Phenyl-2-(pyridin-3-yl)furo[2,3-b]pyrazin-6-yl)phenyl)cyclobutanamine, 2HCl], the IC50 was 1000 to 10000 nM on AKT1, 100 to 1000 nM at AKT2 and over 10000 nM at AKT3.
Regarding `COc1nc(NCCN(C)C)nc2oc(-c3ccc(C4(N)CCC4)cc3)c(-c3ccccc3)c12` [Example 14, N^1-(6-(4-(1-Aminocyclobutyl)phenyl)-4-methoxy-5-phenylfuro[2,3-d]pyrimidin-2-yl)-N^2,N^2-dimethylethane-1,2-diamine], the IC50 on AKT1 lay within 100 to 1000 nM; at AKT2 it was 100 to 1000 nM; at AKT3, 1000 to 10000 nM.
As to `CNC(=O)c1cn(C)c(=O)c2c(-c3ccccc3)c(-c3ccc(C4(N)CCC4)cc3)oc12` [Example 119, 2-(4-(1-Aminocyclobutyl)phenyl)-N,5-dimethyl-4-oxo-3-phenyl-4,5-dihydrofuro[3,2-c]pyridine-7-carboxamide], the IC50 on AKT1 was 100 to 1000 nM; on AKT2, 100 to 1000 nM; at AKT3, over 10000 nM.
For `NC1(c2ccc(-c3oc4ccn(CCF)c(=O)c4c3-c3ccccc3)cc2)CCC1` [Example 91, 2-(4-(1-Aminocyclobutyl)phenyl)-5-(2-fluoroethyl)-3-phenylfuro[3,2-c]pyridin-4(5H)-one], the IC50 at AKT1 was 1000 to 10000 nM; on AKT2 it was 1000 to 10000 nM; on AKT3 it was over 10000 nM.
As for `CNC(=O)CNc1nc2oc(-c3ccc(C4(N)CCC4)cc3)c(-c3ccccc3)c2c(=O)n1C` [Example 60, 2-((6-(4-(1-Aminocyclobutyl)phenyl)-3-methyl-4-oxo-5-phenyl-3,4-dihydrofuro[2,3-d]pyrimidin-2-yl)amino)-N-methylacetamide hydrochloride], the IC50 is 1000 to 10000 nM on AKT1, 100 to 1000 nM at AKT2 and over 10000 nM on AKT3.
With `Cn1c(OCCO)nc2oc(-c3ccc(C4(N)CCC4)cc3)c(-c3ccccc3)c2c1=O` [Example 85, 6-(4-(1-Aminocyclobutyl)phenyl)-2-(2-hydroxyethoxy)-3-methyl-5-phenylfuro[2,3-d]pyrimidin-4(3H)-one, HCl], the concentration for half-maximal inhibition (IC50) is 100 to 1000 nM on AKT1, at most 100 nM on AKT2 and 1000 to 10000 nM at AKT3.
On to `COc1nc(N)nc2oc(-c3ccc(C4(N)CCC4)cc3)c(-c3ccccc3)c12` [Example 31, 6-(4-(1-Aminocyclobutyl)phenyl)-4-methoxy-5-phenylfuro[2,3-d]pyrimidin-2-amine], for which the IC50 on AKT1 is at most 100 nM; at AKT2, 100 to 1000 nM; on AKT3 it was over 10000 nM.
For the compound `Cn1c(N2CC[C@H](O)C2)nc2oc(-c3ccc(C4(N)CCC4)cc3)c(-c3ccccc3)c2c1=O` [Example 56, (S)-6-(4-(1-aminocyclobutyl)phenyl)-2-(3-hydroxypyrrolidin-1-yl)-3-methyl-5-phenylfuro[2,3-d]pyrimidin-4(3H)-one], the IC50 on AKT1 is 100 to 1000 nM; on AKT2 it was at most 100 nM; at AKT3 it was 1000 to 10000 nM.
The corresponding values for `Cn1cnc2oc(-c3ccc(C4(N)CCC4)cc3)c(-c3ccccc3)c2c1=O` [Example 66, 6-(4-(1-Aminocyclobutyl)phenyl)-3-methyl-5-phenylfuro[2,3-d]pyrimidin-4(3H)-one] are 100 to 1000 nM, 100 to 1000 nM and over 10000 nM.
Take `Cn1c(NCC(N)=O)nc2oc(-c3ccc(C4(N)CCC4)cc3)c(-c3ccccc3)c2c1=O` [Example 63, 2-((6-(4-(1-Aminocyclobutyl)phenyl)-3-methyl-4-oxo-5-phenyl-3,4-dihydrofuro[2,3-d]pyrimidin-2-yl)amino)acetamide]: the concentration for half-maximal inhibition (IC50) on AKT1 is 100 to 1000 nM; at AKT2 it was 100 to 1000 nM; on AKT3, over 10000 nM.
For the compound `NC1(c2ccc(-c3oc4ncc(-c5ccccn5)nc4c3-c3ccccc3)cc2)CCC1` [Example 141, 1-(4-(7-Phenyl-2-(pyridin-2-yl)furo[2,3-b]pyrazin-6-yl)phenyl)cyclobutanamine], the 50% inhibitory concentration (IC50) is 1000 to 10000 nM on AKT1, 1000 to 10000 nM at AKT2 and over 10000 nM at AKT3.
In the case of `Cn1c(N2CCCC2)nc2oc(-c3ccc(C4(N)CCC4)cc3)c(-c3ccccc3)c2c1=O` [Example 58, 6-(4-(1-Aminocyclobutyl)phenyl)-3-methyl-5-phenyl-2-(pyrrolidin-1-yl)furo[2,3-d]pyrimidin-4(3H)-one hydrochloride], the IC50 on AKT1 lay within 100 to 1000 nM; on AKT2, 100 to 1000 nM; at AKT3 it was 1000 to 10000 nM.
`NC1(c2ccc(-c3oc4ncc(-c5cnn[nH]5)nc4c3-c3ccccc3)cc2)CCC1` [Example 147, 1-(4-(7-Phenyl-2-(1H-1,2,3-triazol-5-yl)furo[2,3-b]pyrazin-6-yl)phenyl)cyclobutanamine]: the IC50 on AKT1 was 1000 to 10000 nM; on AKT2, 1000 to 10000 nM; on AKT3 it was over 10000 nM.
`NC1(c2ccc(-c3oc4nc(NCCO)[nH]c(=O)c4c3-c3ccccc3)cc2)CCC1` [Example 76, 6-(4-(1-Aminocyclobutyl)phenyl)-2-((2-hydroxyethyl)amino)-5-phenylfuro[2,3-d]pyrimidin-4(3H)-one]: the values for the IC50 at AKT1, on AKT2 and on AKT3 were at most 100 nM, at most 100 nM and 1000 to 10000 nM, respectively.

Broadly, the IC50 is the concentration that inhibits the measured activity by half.
